Assays:
[1] = refractive index (Na D-line) (dimensionless); xn = mol fraction of the nth substance listed; conditions: 100.5 kPa, Liquid, Standard Abbe refractometry
[2] = xn = mol fraction of the nth substance listed

CCCCCCCC(=O)OCC [ethyl octanoate] + CCO
Conditions | refractive index, 288.15 K | refractive index, 298.15 K | refractive index, 308.15 K | refractive index, 318.15 K | surface tension liquid-gas, 288.15 K [mN/m] | surface tension liquid-gas, 298.15 K [mN/m] | surface tension liquid-gas, 308.15 K [mN/m] | surface tension liquid-gas, 318.15 K [mN/m]
[1], x1 = 0.05 | 1.37185 | 1.36779 | 1.36356 | 1.35953 | – | – | – | –
[1], x1 = 0.1 | 1.37876 | 1.37462 | 1.37036 | 1.36625 | – | – | – | –
[1], x1 = 0.15 | 1.38444 | 1.38028 | 1.37601 | 1.37184 | – | – | – | –
[1], x1 = 0.2 | 1.38922 | 1.38502 | 1.38074 | 1.37654 | – | – | – | –
[1], x1 = 0.25 | 1.39327 | 1.38905 | 1.38477 | 1.38054 | – | – | – | –
[1], x1 = 0.3 | 1.39676 | 1.39252 | 1.38823 | 1.38398 | – | – | – | –
[1], x1 = 0.35 | 1.39979 | 1.39553 | 1.39125 | 1.38698 | – | – | – | –
[1], x1 = 0.4 | 1.40245 | 1.39818 | 1.39389 | 1.38961 | – | – | – | –
[1], x1 = 0.45 | 1.40481 | 1.40053 | 1.39624 | 1.39195 | – | – | – | –
[1], x1 = 0.5 | 1.40692 | 1.40263 | 1.39835 | 1.39403 | – | – | – | –
[1], x1 = 0.55 | 1.40882 | 1.40451 | 1.40023 | 1.39591 | – | – | – | –
[1], x1 = 0.6 | 1.41053 | 1.40621 | 1.40193 | 1.3976 | – | – | – | –
[1], x1 = 0.65 | 1.41208 | 1.40776 | 1.40348 | 1.39914 | – | – | – | –
[1], x1 = 0.7 | 1.4135 | 1.40917 | 1.40489 | 1.40054 | – | – | – | –
[1], x1 = 0.75 | 1.4148 | 1.41047 | 1.40619 | 1.40183 | – | – | – | –
[1], x1 = 0.8 | 1.41599 | 1.41166 | 1.40739 | 1.40302 | – | – | – | –
[1], x1 = 0.85 | 1.41709 | 1.41276 | 1.4085 | 1.40412 | – | – | – | –
[1], x1 = 0.9 | 1.4181 | 1.41378 | 1.40952 | 1.40515 | – | – | – | –
[1], x1 = 0.95 | 1.41904 | 1.41472 | 1.41047 | 1.40611 | – | – | – | –
[1], x1 = 1 | 1.41991 | 1.4156 | 1.41137 | 1.40702 | – | – | – | –
[2], x1 = 0.05 | – | – | – | – | 23.6 | 22.9 | 22 | 21.1
[2], x1 = 0.1 | – | – | – | – | 24 | 23.3 | 22.5 | 21.6
[2], x1 = 0.15 | – | – | – | – | 24.4 | 23.7 | 22.8 | 21.9
[2], x1 = 0.2 | – | – | – | – | 24.8 | 24 | 23.2 | 22.3
[2], x1 = 0.25 | – | – | – | – | 25.1 | 24.3 | 23.4 | 22.6
[2], x1 = 0.3 | – | – | – | – | 25.3 | 24.5 | 23.7 | 22.8
[2], x1 = 0.35 | – | – | – | – | 25.5 | 24.8 | 23.9 | 23
[2], x1 = 0.4 | – | – | – | – | 25.7 | 24.9 | 24.1 | 23.2
[2], x1 = 0.45 | – | – | – | – | 25.9 | 25.1 | 24.2 | 23.4
[2], x1 = 0.5 | – | – | – | – | 26.1 | 25.3 | 24.4 | 23.5
[2], x1 = 0.55 | – | – | – | – | 26.2 | 25.4 | 24.5 | 23.7
[2], x1 = 0.6 | – | – | – | – | 26.3 | 25.6 | 24.7 | 23.8
[2], x1 = 0.65 | – | – | – | – | 26.5 | 25.7 | 24.8 | 24
[2], x1 = 0.7 | – | – | – | – | 26.6 | 25.8 | 24.9 | 24.1
[2], x1 = 0.75 | – | – | – | – | 26.7 | 25.9 | 25 | 24.2
[2], x1 = 0.8 | – | – | – | – | 26.8 | 26 | 25.1 | 24.3
[2], x1 = 0.85 | – | – | – | – | 26.9 | 26.1 | 25.2 | 24.4
[2], x1 = 0.9 | – | – | – | – | 27 | 26.2 | 25.3 | 24.5
[2], x1 = 0.95 | – | – | – | – | 27.1 | 26.3 | 25.4 | 24.6
[2], x1 = 1 | – | – | – | – | 27.2 | 26.4 | 25.5 | 24.7

From the NIST ThermoML archive (doi:10.1021/je0601208)
